Reference: patent US20110166132A1, “Gamma Secretase Modulators” (Amgen Inc., priority 2007, published 2011)

The compounds below were run against T1, gamma secretase (Homo sapiens, UniProt P49768) (assay: GSM cell-based assay: Aβ 42 inhibition or reduction in HEK 293 cells over-expressing APP (sandwich ELISA)). Settings: approximate IC50; HEK293 cells stably expressing full length APP, 24 hours incubation, 10-point dose response starting at 10 μM.
T1 construct: HEK293 cells stably expressing full length Amyloid Precursor Protein (APP); endogenous in cells; host or cells: HEK 293 cells stably expressing full length APP
From the text: GSM cell-based assays were designed to measure the modulation of Aβ 42 from HEK 293 cells over-expressing APP.
Three simultaneous cell-based assays, namely Aβ 42 inhibition or reduction, Aβ 40 inhibition or reduction and a measurement of cell viability of the cells from which the Aβ 42/40 readout was obtained, together gave an interpretation of gamma secretase modulation (GSM). The assays measure Aβ 42 and Ab 40 from conditioned medium of test compound treated HEK 293 cells.
HEK293 cells stably expressing full length Amyloid Precursor Protein (APP) were plated at a density of 100K cells/well in 96 well plates (Costar). The cells were cultivated for 6 hours at 37° C. and 5% CO2 in DMEM supplemented with 10% FBS. The test compounds were then added to cells in 10-point dose response concentrations with the starting concentration being 10 μM. The compounds were diluted from stock solutions in DMSO and the final DMSO concentration of the test compounds on cells was 0.1%. After 24 hours of incubation with the test compounds the supernatant conditioned media was collected and the Aβ 42, Aβ 40 levels were determined using a sandwich ELISA. A cell viability test (CellTiter-Blue Cell Viability assay, Promega) on the cells from which the conditioned medium was harvested for Aβ 42 or Aβ 40 readouts gave an indication of cell survivability as a possible reason for false positive Aβ 42 or 40 reduction or inhibition readout. The IC50 of the compound (for either Aβ 42 or Aβ 40) was calculated from the percent of control or percent inhibition of Aβ 42 or Aβ 40 as a function of the concentration of the test compound.
The sandwich ELISA to detect Aβ 42 or Aβ 40 was performed in 96 well microtiter plates, which were pre-treated with goat anti-rabbit IgG (Pierce). The capture and detecting antibody pair that were used to detect Aβ 42 and Aβ 40 from cell supernatants were rabbit monoclonal Antibody 42 (RabMAb 42) and affinity purified polyclonal Antibody 40 pAB40 (Biosource) as capture antibodies and biotinylated 6E10 (Signet Labs Inc.) as detection antibody. The optimal concentration for RabMAb 42 was 1 μg/ml in Superblock/TBS (Pierce) that was supplemented with 0.05% Tween 20 (Sigma). The optimal concentration for the pAb40 antibody was 3 μg/ml in Superblock/TBS (Pierce) that was supplemented with 0.05% Tween 20 (Sigma). Optimal concentration for the detection antibody 6E10-biotinylated was 0.5 μg/ml in Superblock/TBS (Pierce) that had been supplemented with 2% normal goat serum and 2% normal mouse serum.
Cellular supernatants were incubated with the capture antibody for 16-20 hours at 4° C., followed by 3 wash steps in TBS-tween (0.05%). The detecting antibody incubation was for 3 hours at 4° C., again followed by the wash steps as described previously. The final readout of the ELISA is Time-Resolved Fluorescence (counts per minute) using Delfia reagents Streptavidin-Europium and Enhancement solutions (Perkin Elmer) and the EnVision Multilabel plate reader (Perkin Elmer).

SMILES	IC50
Cc1cc(-c2ccc(NC(=O)[C@H](CC(C)C)c3ccc(-c4ccc(N5CCOCC5)cc4)cc3)cc2)ccn1 [Cpd 131, (2R)-4-methyl-N-(4-(2-methyl-4-pyridinyl)-phenyl)-2-(4′-(4-morpholinyl)-4-biphenylyl)pentanamide]	191 nM
Cc1cc(-c2ccc(NC(=O)C(CC(C)C)c3ccc(N4CCCCC4)cc3)cc2)ccn1 (centres unmarked) [Cpd 134, 4-methyl-N-(4-(2-methyl-4-pyridinyl)-phenyl)-2-(4-(1-piperidinyl)phenyl)-pentanamide]	242 nM
Cc1cc(-c2ccc(NC(=O)C(C)c3cccc(-c4ccc(N5CCOCC5)nc4)c3)cc2)ccn1 (centres unmarked) [Cpd 135, N-(4-(2-methyl-4-pyridinyl)phenyl)-2-(3-(6-(4-morpholinyl)-3-pyridinyl)phenyl)-propanamide]	154 nM
Cc1cc(-c2ccc(NC(=O)C(C)c3cccc(N4CCN(C)CC4)c3)cc2)ccn1 (centres unmarked) [Cpd 138]	> 10000 nM
Cc1cc(-c2ccc(NC(=O)C(C)c3cccc(N4CCN(c5ccccn5)CC4)c3)cc2)ccn1 (centres unmarked) [Cpd 139, N-(4-(2-methyl-4-pyridinyl)phenyl)-2-(3-(4-(2-pyridinyl)-1-piperazinyl)phenyl)-propanamide]	166 nM
Cc1cc(-c2ccc(NC(=O)C(C)c3cccc(C4CCN(CCO)CC4)c3)cc2)ccn1 (centres unmarked) [Cpd 140]	> 10000 nM
Cc1cc(-c2ccc(NC(=O)C(C)c3cccc(N4CCOCC4)n3)cc2)ccn1 (centres unmarked) [Cpd 141]	8570 nM
CSc1cccc(C(C)C(=O)Nc2ccc(-c3ccnc(C)c3)cc2)c1 (centres unmarked) [Cpd 142, N-(4-(2-methyl-4-pyridinyl)phenyl)-2-(3-(methylsulfanyl)phenyl)propanamide]	1050 nM
COc1cc(NC(=O)C(C)c2cccc(Br)c2)ccc1-c1ccnc(C)c1 (centres unmarked) [Cpd 143]	485 nM
Cc1cc(-c2ccc(NC(=O)C(CC(C)C)c3cccc(S(C)(=O)=O)c3)cc2)ccn1 (centres unmarked) [Cpd 145]	> 10000 nM
Cc1cc(-c2ccc(NC(=O)C(C)c3cccc(-c4ccc(N(C)C)cc4)c3)cc2)ccn1 (centres unmarked) [Cpd 147, 2-(4'-(dimethylamino)-3-biphenylyl)-N-(4-(2-methyl-4-pyridinyl)phenyl)propanamide]	116 nM
Cc1cc(-c2ccc(NC(=O)C(C)n3cnc(-c4ccccc4)c3)cc2)ccn1 (centres unmarked) [Cpd 151, N-(4-(2-methyl-4-pyridinyl)phenyl)-2-(4-phenyl-1H-imidazol-1-yl)propanamide]	582 nM
Cc1cc(-c2ccc(NC(=O)C(C)c3cccc(-c4cccc(C#N)c4)c3)cc2)ccn1 (centres unmarked) [Cpd 154, 2-(3′-cyano-3-biphenylyl)-N-(4-(2-methyl-4-pyridinyl)phenyl)propanamide]	216 nM
COc1ncc(-c2cccc(C(C)C(=O)Nc3ccc(-c4ccnc(C)c4)cc3)c2)cn1 (centres unmarked) [Cpd 156, 2-(3-(2-methoxy-5-pyrimidinyl)phenyl)-N-(4-(2-methyl-4-pyridinyl)phenyl)-propanamide]	246 nM
Cc1cc(-c2ccc(NC(=O)C(C)c3cccc(-c4ccc(C(=O)N(C)C)cc4)c3)cc2)ccn1 (centres unmarked) [Cpd 157]	256 nM
CC(=O)c1ccc(-c2cccc(C(C)C(=O)Nc3ccc(-c4ccnc(C)c4)cc3)c2)cc1 (centres unmarked) [Cpd 158, 2-(4′-acetyl-3-biphenylyl)-N-(4-(2-methyl-4-pyridinyl)phenyl)propanamide]	139 nM
Cc1cc(-c2ccc(NC(=O)C(C)c3cccc(Br)c3)c(C#N)c2)ccn1 (centres unmarked) [Cpd 161, 2-(3-bromophenyl)-N-(2-cyano-4-(2-methyl-4-pyridinyl)phenyl)propanamide]	> 10000 nM
Cc1cc(-c2ccc(NC(=O)C(CC3CC3)c3cccc(Br)c3)cc2)ccn1 (centres unmarked) [Cpd 163, 2-(3-bromophenyl)-3-cyclopropyl-N-(4-(2-methyl-4-pyridinyl)phenyl)propanamide]	184 nM
Cc1cc(-c2ccc(NC(=O)C(C)c3cccc(Nc4ccccc4)c3)cc2)ccn1 (centres unmarked) [Cpd 165, N-(4-(2-methyl-4-pyridinyl)phenyl)-2-(3-(phenylamino)phenyl)propanamide]	1160 nM
COCCNc1cccc(C(C)C(=O)Nc2ccc(-c3ccnc(C)c3)cc2)c1 (centres unmarked) [Cpd 166]	2840 nM
Cc1cc(-c2ccc(NC(=O)[C@H]3CCCN3C(=O)OC(C)(C)C)cc2)ccn1 [Cpd 168]	> 10000 nM

SMILES	IC50
Cc1cc(-c2ccc(NC(=O)C(C)c3ccc(NCC4CC4)cc3)cc2)ccn1 (centres unmarked) [Cpd 171, 2-(4-((cyclopropylmethyl)amino)phenyl)-N-(4-(2-methyl-4-pyridinyl)phenyl)-propanamide]	2480 nM
Cc1cc(-c2ccc(NC(=O)C(C)c3ccc(N(CC4CC4)CC4CC4)cc3)cc2)ccn1 (centres unmarked) [Cpd 172]	540 nM
Cc1cc(-c2ccc(NC(=O)C(CC(C)C)C3CCOCC3)cc2)ccn1 (centres unmarked) [Cpd 173]	> 10000 nM
Cc1cc(-c2ccc(NC(=O)C(C)c3cccc(-c4ccsc4)c3)cc2)ccn1 (centres unmarked) [Cpd 174, N-(4-(2-methyl-4-pyridinyl)phenyl)-2-(3-(3-thiophenyl)phenyl)propanamide]	1270 nM
Cc1cc(-c2ccc(NC(=O)[C@H](CC3CC3)c3cccc(Br)c3)cc2)ccn1 [Cpd 180, (2R)-2-(3-bromophenyl)-3-cyclopropyl-N-(4-(2-methyl-4-pyridinyl)phenyl)-propanamide]	367 nM
COCCNc1cccc(C(CC(C)C)C(=O)Nc2ccc(-c3ccnc(C)c3)cc2)n1 (centres unmarked) [Cpd 182, 2-(6-((2-methoxyethyl)amino)-2-pyridinyl)-4-methyl-N-(4-(2-methyl-4-pyridinyl)-phenyl)pentanamide]	> 10000 nM
Cc1cc(-c2ccc(NC(=O)C(C)c3cccc(-c4csc(N5CCOCC5)n4)c3)cc2)ccn1 (centres unmarked) [Cpd 183]	827 nM
Cc1cc(-c2ccc(NC(=O)C3CC3(C)C)cc2)ccn1 (centres unmarked) [Cpd 184]	1090 nM
Cc1cc(-c2ccc(NC(=O)C3CC3(F)F)cc2)ccn1 (centres unmarked) [Cpd 185]	910 nM
Cc1cc(-c2ccc(NC(=O)C3CC34CCC4)cc2)ccn1 (centres unmarked) [Cpd 186]	> 10000 nM
Cc1cc(-c2ccc(NC(=O)C(C)c3ccc(NC4CCOCC4)cc3)cc2)ccn1 (centres unmarked) [Cpd 188, N-(4-(2-methyl-4-pyridinyl)phenyl)-2-(4-(tetrahydro-2H-pyran-4-ylamino)phenyl)-propanamide]	2590 nM
Cc1cc(-c2ccc(NC(=O)[C@H](CC(C)C)c3cc(F)cc(F)c3)cc2)ccn1 [Cpd 190]	349 nM
COc1cc(NC(=O)C(C)c2cccc(-c3ccc(N4CCOCC4)cc3)c2)ccc1-c1ccnc(C)c1 (centres unmarked) [Cpd 191]	179 nM
CCC(C(=O)Nc1ccc(-c2ccnc(C)c2)cc1)c1cccc(C)c1 (centres unmarked) [Cpd 200, 2-(3-methylphenyl)-N-(4-(2-methyl-4-pyridinyl)phenyl)butanamide]	1050 nM
Cc1cc(-c2ccc(NC(=O)C(CC(C)C)c3cccc(-c4ccc(N5CCN(C(=O)OC(C)(C)C)CC5)cc4)c3)cc2)ccn1 (centres unmarked) [Cpd 228, tert-butyl 4-(3′-(3-methyl-1-((4-(2-methyl-4-pyridinyl)phenyl)carbamoyl)butyl)-4-biphenylyl)-1-piperazinecarboxylate]	135 nM
Cc1cc(-c2ccc(NC(=O)c3cccc(C#N)c3)cc2)ccn1 [Cpd 275]	> 10000 nM
Cc1cc(-c2ccc(NC(=O)c3cccc(C(F)(F)F)c3)cc2)ccn1 [Cpd 279]	> 10000 nM
Cc1cc(-c2ccc(NC(=O)c3ccc(-c4ccccc4)cc3)cc2)ccn1 [Cpd 280]	> 10000 nM
COc1cc(C(=O)Nc2ccc(-c3ccnc(C)c3)cc2)ccc1C [Cpd 282]	> 10000 nM
Cc1cc(-c2ccc(NC(=O)c3cccc4c3oc3ccccc34)cc2)ccn1 [Cpd 286]	6710 nM
